Test results from US7186741B2, “Neurotensin active 2,3,diaryl-pyrazolidine derivatives” (Solvay Pharmaceuticals B.V., priority 2002, dated 2007).

System: enzymes which degrade the neuropeptide neurotensin
Assay: pharmacological activity of stereoisomers/racemates (test not specified)
Assay type: biochemical
Settings: result in words; comparison of enantiomers or diastereomeric racemates
From the text: The invention relates to a group of new 2,3-diaryl-pyrazolidine derivatives having inhibiting activity on enzymes which degrade the neuropeptide neurotensin.
The compounds according to the invention are active in inhibiting the abovementioned enzymes in the range of 5.0–8.0 (plC50 values), when tested according to the methods described in Biochem. J. 280, 421–426, and Eur. J. Biochem. 202, 269–276.

O=C(NCC(=O)N1CCC(c2ccccc2Cl)N1c1ccccc1Cl)NC1C2CC3CC(C2)CC1C3 (stereo not shown) [Compound A12]
pharmacological activity (active / inactive racemate, eutomer): eutomer
